This note sets out measurements from patent publication US8222246B2, “Substituted isoxazoles” (Hoffmann-La Roche Inc., priority 2009, dated 2012).

SMILES strings stand for the structures.

The target of the experiment is T1, GABA A α5 (α5β3γ2) (Homo sapiens, UniProt P18507+P31644).
T1 construct: expressed in transfected cells; host or cells: HEK293 (transiently transfected), membranes
The experiment can be described thus: [3H]flumazenil competition binding assay, human GABA A α5 receptors in HEK293 cells. Particulars: competition for [3H]flumazenil (0.5 nM); HEK293 cells expressing human (transiently transfected) receptors; means of two determinations; read-out: hKi GABA A α5. The method, then: Membrane Preparation and Binding Assay
The affinity of compounds at GABA A receptor subtypes was measured by competition for [3H]flumazenil (85 Ci/mmol; Roche) binding to HEK293 cells expressing rat (stably transfected) or human (transiently transfected) receptors of composition α1β3γ2, α2β3γ2, α3β3γ2 and α5β3γ2.
Cell pellets were suspended in Krebs-tris buffer (4.8 mM KCl, 1.2 mM CaCl2, 1.2 mM MgCl2, 120 mM NaCl, 15 mM Tris; pH 7.5; binding assay buffer), homogenized by polytron for ca. 20 sec on ice and centrifuged for 60 min at 4° C. (50000 g; Sorvall, rotor: SM24=20000 rpm). The cell pellets were resuspended in Krebs-tris buffer and homogenized by polytron for ca. 15 sec on ice. Protein was measured (Bradford method, Bio-Rad) and aliquots of 1 mL were prepared and stored at −80° C.
Radioligand binding assays were carried out in a volume of […] (96-well plates) which contained […] of cell membranes, [3H]flumazenil at a concentration of 1 nM for α1, α2, α3 subunits and 0.5 nM for α5 subunits and the test compound in the range of […]. Nonspecific binding was defined by 10^−5 M diazepam and typically represented less than 5% of the total binding. Assays were incubated to equilibrium for 1 hour at 4° C. and harvested onto GF/C uni-filters (Packard) by filtration using a Packard harvester and washing with ice-cold wash buffer (50 mM Tris; pH 7.5). After drying, filter-retained radioactivity was detected by liquid scintillation counting. Ki values were calculated using Excel-Fit (Microsoft) and are the means of two determinations.
Representative test results, obtained by the above described assay measuring binding affinity to HEK293 cells expressing human (h) receptors, are shown in table 1 below.

As to `O=C(NCC1CC1)c1ccc(OCc2c(-c3ccc(F)cc3)noc2CO)nc1` [Example 6, N-Cyclopropylmethyl-6-[3-(4-fluoro-phenyl)-5-hydroxymethyl-isoxazol-4-ylmethoxy]-nicotinamide], the Ki amounted to 1.7 nM.
Next, `O=C(c1ccc(OCc2c(-c3ccc(F)cc3)noc2CO)nc1)N1CCS(=O)(=O)CC1` [Example 3, (1,1-Dioxo-1,6-thiomorpholin-4-yl)-{6-[3-(4-fluoro-phenyl)-5-hydroxymethyl-isoxazol-4-ylmethoxy]-pyridin-3-yl}-methanone]: 8.6 nM; `O=C(c1ccc(OCc2c(-c3ccccn3)noc2CO)nc1)N1CCOCC1` [Example 54, [6-(5-Hydroxymethyl-3-pyridin-2-yl-isoxazol-4-ylmethoxy)-pyridin-3-yl]-morpholin-4-yl-methanone]: 67.2 nM.
In the case of `O=C(NN1CCOCC1)c1ccc(OCc2c(-c3ccccn3)noc2CO)nc1` [Example 48, 6-(5-Hydroxymethyl-3-pyridin-2-yl-isoxazol-4-ylmethoxy)-N-morpholin-4-yl-nicotinamide], the Ki stood at 1.7 nM.
For the compound `CCCCc1noc(CO)c1COc1ccc(C(=O)NC(C)C)cn1` [Example 49, 6-(3-Butyl-5-hydroxymethyl-isoxazol-4-ylmethoxy)-N-isopropyl-nicotinamide], the Ki is 16 nM.
Next, `O=C(NCC1CC1)c1ccc(OCc2c(-c3ccc(F)c(F)c3)noc2CO)nc1` [Example 30, N-Cyclopropylmethyl-6-[3-(3,4-difluoro-phenyl)-5-hydroxymethyl-isoxazol-4-ylmethoxy]-nicotinamide]: 4 nM.
Next, `O=C(NCC(F)(F)F)c1ccc(OCc2c(-c3ccc(Cl)cc3)noc2CO)nc1` [Example 21, 6-[3-(4-Chloro-phenyl)-5-hydroxymethyl-isoxazol-4-ylmethoxy]-N-(2,2,2-trifluoro-ethyl)-nicotinamide]: 2 nM; `CC[C@H](CO)NC(=O)c1ccc(OCc2c(-c3ccc(F)cc3)noc2CO)nc1` [Example 14, 6-[3-(4-Fluoro-phenyl)-5-hydroxymethyl-isoxazol-4-ylmethoxy]-N-((R)-1-hydroxymethyl-propyl)-nicotinamide]: 3.5 nM.
As for `CC(C)(CO)NC(=O)c1ccc(OCc2c(-c3ccc(Cl)cc3)noc2CO)nc1` [Example 23, 6-[3-(4-Chloro-phenyl)-5-hydroxymethyl-isoxazol-4-ylmethoxy]-N-(2-hydroxy-1,1-dimethyl-ethyl)-nicotinamide], the Ki came out at 3.9 nM.
To `O=C(NCCO)c1ccc(OCc2c(-c3ccccc3)noc2CO)nc1` [Example 2, N-(2-Hydroxy-ethyl)-6-(5-hydroxymethyl-3-phenyl-isoxazol-4-ylmethoxy)-nicotinamide] belongs 1.6 nM; to `O=C(c1ccc(OCc2c(-c3ccc(Cl)cc3)noc2CO)nc1)N1CCS(=O)(=O)CC1` [Example 18, {6-[3-(4-Chloro-phenyl)-5-hydroxymethyl-isoxazol-4-ylmethoxy]-pyridin-3-yl}-(1,1-dioxo-1-thiomorpholin-4-yl)-methanone], 3.5 nM; to `CC(C)(CO)NC(=O)c1ccc(OCc2c(-c3ccc(F)cc3)noc2CO)nc1` [Example 12, 6-[3-(4-Fluoro-phenyl)-5-hydroxymethyl-isoxazol-4-ylmethoxy]-N-(2-hydroxy-1,1-dimethyl-ethyl)-nicotinamide], 10.1 nM.
In the case of `O=C(c1ccc(OCc2c(-c3ccccn3)noc2CO)nc1)N1CCS(=O)(=O)CC1` [Example 43, (1,1-Dioxo-1,6-thiomorpholin-4-yl)-[6-(5-hydroxymethyl-3-pyridin-2-yl-isoxazol-4-ylmethoxy)-pyridin-3-yl]-methanone], the Ki worked out at 10.8 nM.
In the case of `CCCCc1noc(CO)c1COc1ccc(C(=O)NC2CCC2)cn1` [Example 52, 6-(3-Butyl-5-hydroxymethyl-isoxazol-4-ylmethoxy)-N-cyclobutyl-nicotinamide], the Ki is 13.7 nM.
For `CC[C@H](CO)NC(=O)c1ccc(OCc2c(-c3ccc(F)c(F)c3)noc2CO)nc1` [Example 37, 6-[3-(3,4-Difluoro-phenyl)-5-hydroxymethyl-isoxazol-4-ylmethoxy]-N-([R]-1-hydroxymethyl-propyl)-nicotinamide], the Ki came out at 4.4 nM.
For `CC(NC(=O)c1ccc(OCc2c(-c3ccc(F)cc3)noc2CO)nc1)C(F)(F)F` (stereo not drawn) [Example 11, 6-[3-(4-Fluoro-phenyl)-5-hydroxymethyl-isoxazol-4-ylmethoxy]-N-(2,2,2-trifluoro-1-methyl-ethyl)-nicotinamide], the Ki turned out to be 1.4 nM.
On to `Cn1cc(NC(=O)c2ccc(OCc3c(-c4ccc(Cl)cc4)noc3CO)nc2)cn1` [Example 24, 6-[3-(4-Chloro-phenyl)-5-hydroxymethyl-isoxazol-4-ylmethoxy]-N-(1-methyl-1H-pyrazol-4-yl)-nicotinamide], for which the Ki worked out at 0.7 nM.
To `O=C(NC1CC1)c1ccc(OCc2c(-c3ccc(Cl)cc3)noc2CO)nc1` [Example 20, 6-[3-(4-Chloro-phenyl)-5-hydroxymethyl-isoxazol-4-ylmethoxy]-N-cyclopropyl-nicotinamide] belongs 1 nM.
Next, `CC[C@@H](CO)NC(=O)c1ccc(OCc2c(-c3ccc(F)c(F)c3)noc2CO)nc1` [Example 38, 6-[3-(3,4-Difluoro-phenyl)-5-hydroxymethyl-isoxazol-4-ylmethoxy]-N-([S]-1-hydroxymethyl-propyl)-nicotinamide]: 1.3 nM; `O=C(NC1CCOCC1)c1ccc(OCc2c(-c3ccc(F)c(F)c3)noc2CO)nc1` [Example 29, 6-[3-(3,4-Difluoro-phenyl)-5-hydroxymethyl-isoxazol-4-ylmethoxy]-N-(tetrahydro-pyran-4-yl)-nicotinamide]: 2 nM.
As for `CC(C)NC(=O)c1ccc(OCc2c(-c3ccc(F)cc3)noc2CO)nc1` [Example 4, 6-[3-(4-Fluoro-phenyl)-5-hydroxymethyl-isoxazol-4-ylmethoxy]-N-isopropyl-nicotinamide], the Ki is 1.1 nM.
Next, `CN(C)NC(=O)c1ccc(OCc2c(-c3ccccn3)noc2CO)nc1` [Example 46, 6-(5-Hydroxymethyl-3-pyridin-2-yl-isoxazol-4-ylmethoxy)-nicotinic acid N′,N′-dimethyl-hydrazide]: 2.5 nM; `O=C(NC1CC1)c1ccc(OCc2c(-c3ccc(F)cc3)noc2CO)nc1` [Example 8, N-Cyclopropyl-6-[3-(4-fluoro-phenyl)-5-hydroxymethyl-isoxazol-4-ylmethoxy]-nicotinamide]: 1.7 nM; `O=C(NN1CCOCC1)c1ccc(OCc2c(-c3ccc(F)c(F)c3)noc2CO)nc1` [Example 41, 6-[3-(3,4-Difluoro-phenyl)-5-hydroxymethyl-isoxazol-4-ylmethoxy]-N-morpholin-4-yl-nicotinamide]: 1.1 nM.
To `CC(C)NC(=O)c1ccc(OCc2c(-c3ccc(F)c(F)c3)noc2CO)nc1` [Example 28, 6-[3-(3,4-Difluoro-phenyl)-5-hydroxymethyl-isoxazol-4-ylmethoxy]-N-isopropyl-nicotinamide] belongs 1.5 nM; to `CC(C)(CO)NC(=O)c1ccc(OCc2c(-c3ccc(F)c(F)c3)noc2CO)nc1` [Example 34, 6-[3-(3,4-Difluoro-phenyl)-5-hydroxymethyl-isoxazol-4-ylmethoxy]-N-(2-hydroxy-1,1-dimethyl-ethyl)-nicotinamide], 13.6 nM; to `O=C(NCC(F)(F)C(F)(F)F)c1ccc(OCc2c(-c3ccc(F)c(F)c3)noc2CO)nc1` [Example 35, 6-[3-(3,4-Difluoro-phenyl)-5-hydroxymethyl-isoxazol-4-ylmethoxy]-N-(2,2,3,3,3-pentafluoro-propyl)-nicotinamide], 6.8 nM.
